In patent US20150218222A1, “Medicaments” (ARMO BioSciences, Inc., priority 2005, published 2015):
“Also recorded” adds a separate entry of the source. Where no end group is shown, it is not given here.

Experiments:
Type in all cases: in vivo
rat incisional wounds [1] = assay: Microscopic wound width by image analysis of day three rat incisional wounds; conditions: for wound width at the mid-points of incisional wounds: FIG. 3; for wound width at the top of incisional wounds: FIG. 2
Method: (§1) The effects of the peptide on wound healing and scar formation were assessed with reference to the following parameters: • i) The macroscopic quality of the wounds. This was assessed using a rat macroscopic wound assessment protocol as follows. Macroscopic appearance was scored using a Visual Analogue Scale (VAS) consisting of a 10 cm line representing a scale from 0 (denoted by a mark at 0 cm) indicating a “good” wound to 10 (denoted by a mark at 10 cm) indicating a “poor” wound. In assessing the quality of the wound a mark representative of the score conferred was made on the 10 cm line based on the gape and quality of healing of the wound. The best-healed wounds were scored towards the good wound end of the scale (the left hand side of the VAS line) and the poorly healed ones were scored towards the poor wound end of the scale (the right hand side of the VAS line). The marks awarded were measured from the left hand side to provide the final value for the wound assessment in centimetres (to 1 decimal place). • ii) The microscopic width of wounds. The microscopic width of wounds was measured using image analysis of histological sections of wounds. Wounds were analysed using a Leica DM RXA Microscope and a Leica QWin Image Analyser. Linear wound width was measured with a straight line from the left wound margin (where the epidermis begins to thicken) to the right wound margin (where the epidermis begins to thicken). • iii) The re-epithelialisation of wounds. The extent of re-epithelialisation of wounds was measured using image analysis of histological sections of wounds. The percentage re-epithelialisation was calculated by first measuring the non-epithelialised wound diameter. The non-epithelialised wound length was measured with a straight line from the left hand non-epithelialised wound edge to the right hand non-epithelialised wound edge. The non-epithelialised wound edges were identified as the current position of the epithelium in the wound during healing. The re-epithelialisation width was then calculated by subtracting the non re-epithelialised width from the wound width. The percentage re-epithelialisation was then calculated accordingly. • iv) The microscopic quality of the wounds. This was assessed using microscopic Wound Index sheets analysed in accordance with the protocol described below. Evaluation of the microscopic quality of the wounds included an assessment of inflammatory response present in the wounds, as well as assessment of the cellularity of the wounds.
(§2) Rat incisional wounds formed in accordance with well-accepted experimental models (previously described in Shah et al. 1994) were treated with peptide Ala-Tyr-Met-Thr-Met-Lys-Ile-Arg-Asn (Sequence ID No. 2) at concentrations of 50, 125, 250 […] ng/100 μl. Treated and control wounds were harvested at three days post-wounding, and scars derived from treated and control wounds harvested at seventy days post-wounding.
(§3) Four wounds were made on each experimental animal (rat), of which two were treated with the trial concentrations of the peptide. The peptide was administered by intradermal injection on the day of wounding and at one day following wounding.
The experimental animals for wound analysis were killed on the third day post-wounding, and wounds harvested for histology.
Wound widths and percentage re-epithelialisation of incisions were measured by Image Analysis in accordance with the protocols described above. […]

rat incisional wounds [2] = assay: Macroscopic wound quality (VAS) of day three rat incisional wounds; conditions: day 0 and 1, p<0.05 vs naïve wounds, FIG. 1
Method: The effects of the peptide on wound healing and scar formation were assessed with reference to the following parameters: • i) The macroscopic quality of the wounds. This was assessed using a rat macroscopic wound assessment protocol as follows. Macroscopic appearance was scored using a Visual Analogue Scale (VAS) consisting of a 10 cm line representing a scale from 0 (denoted by a mark at 0 cm) indicating a “good” wound to 10 (denoted by a mark at 10 cm) indicating a “poor” wound. In assessing the quality of the wound a mark representative of the score conferred was made on the 10 cm line based on the gape and quality of healing of the wound. The best-healed wounds were scored towards the good wound end of the scale (the left hand side of the VAS line) and the poorly healed ones were scored towards the poor wound end of the scale (the right hand side of the VAS line). The marks awarded were measured from the left hand side to provide the final value for the wound assessment in centimetres (to 1 decimal place). • ii) The microscopic width of wounds. The microscopic width of wounds was measured using image analysis of histological sections of wounds. Wounds were analysed using a Leica DM RXA Microscope and a Leica QWin Image Analyser. […] The extent of re-epithelialisation of wounds was measured using image analysis of histological sections of wounds. […]

rat incisional wounds [3] = assay: Percentage re-epithelialisation by image analysis of day three rat incisional wounds; conditions: FIG. 4
Method: The effects of the peptide on wound healing and scar formation were assessed with reference to the following parameters: • i) The macroscopic quality of the wounds. This was assessed using a rat macroscopic wound assessment protocol as follows. Macroscopic appearance was scored using a Visual Analogue Scale (VAS) consisting of a 10 cm line representing a scale from 0 (denoted by a mark at 0 cm) indicating a “good” wound to 10 (denoted by a mark at 10 cm) indicating a “poor” wound. In assessing the quality of the wound a mark representative of the score conferred was made on the 10 cm line based on the gape and quality of healing of the wound. The best-healed wounds were scored towards the good wound end of the scale (the left hand side of the VAS line) and the poorly healed ones were scored towards the poor wound end of the scale (the right hand side of the VAS line). The marks awarded were measured from the left hand side to provide the final value for the wound assessment in centimetres (to 1 decimal place). • ii) The microscopic width of wounds. The microscopic width of wounds was measured using image analysis of histological sections of wounds. Wounds were analysed using a Leica DM RXA Microscope and a Leica QWin Image Analyser. Linear wound width was measured with a straight line from the left wound margin (where the epidermis begins to thicken) to the right wound margin (where the epidermis begins to thicken). • iii) The re-epithelialisation of wounds. The extent of re-epithelialisation of wounds was measured using image analysis of histological sections of wounds. The percentage re-epithelialisation was calculated by first measuring the non-epithelialised wound diameter. The non-epithelialised wound length was measured with a straight line from the left hand non-epithelialised wound edge to the right hand non-epithelialised wound edge. […] The re-epithelialisation width was then calculated by subtracting the non re-epithelialised width from the wound width. The percentage re-epithelialisation was then calculated accordingly. • iv) The microscopic quality of the wounds. […]

rat incisional wounds [4] = assay: Microscopic Wound Index (wound width, cellularity, inflammation, epithelial covering) of day three rat incisional wounds; conditions: for wound index score / wound width score (Wound Index parameter): day three, combined scores of 3 observers; for wound index score: FIG. 5; for wound width score (Wound Index parameter): FIG. 6
Method: as §1
Wound index assesses the quality of the wound and gives an assessment based upon the following parameters: wound width (scored out of 10; 1 being a very narrow wound and 10 being a very wide wound); total cellularity of the wound (scored out of 5; 1 being a wound containing a low number of cells and 5 being a wound with a high number of cells); inflammatory cell number (scored out of 5; 1 being a low number of inflammatory cells and 5 being a high number of inflammatory cells); and epithelial covering (scored 0 for complete coverage and 1 for incomplete coverage). The final wound index score is derived by adding the scores for each parameter. A higher wound index value indicates a wound of low quality, whilst a lower wound index value represents a wound of relatively higher quality. • v) The macroscopic quality of scars. This was assessed using a rat macroscopic scar assessment protocol as follows. Macroscopic appearance was scored using a Visual Analogue Scale (VAS) consisting of a 10 cm line representing a scale from 0 corresponding to normal skin to 10 corresponding to a bad scar. A mark was made on the 10 cm line based on an overall assessment of the scar taking into account parameters such as the height, width, contour and colour of the scar. […]

rat incisional wounds [5] = assay: Macroscopic scar quality (VAS) of day seventy scars from rat incisional wounds; conditions: FIG. 9
Description: Wound index assesses the quality of the wound and gives an assessment based upon the following parameters: wound width (scored out of 10; 1 being a very narrow wound and 10 being a very wide wound); total cellularity of the wound (scored out of 5; 1 being a wound containing a low number of cells and 5 being a wound with a high number of cells); inflammatory cell number (scored out of 5; 1 being a low number of inflammatory cells and 5 being a high number of inflammatory cells); and epithelial covering (scored 0 for complete coverage and 1 for incomplete coverage). The final wound index score is derived by adding the scores for each parameter. A higher wound index value indicates a wound of low quality, whilst a lower wound index value represents a wound of relatively higher quality. • v) The macroscopic quality of scars. This was assessed using a rat macroscopic scar assessment protocol as follows. Macroscopic appearance was scored using a Visual Analogue Scale (VAS) consisting of a 10 cm line representing a scale from 0 corresponding to normal skin to 10 corresponding to a bad scar. A mark was made on the 10 cm line based on an overall assessment of the scar taking into account parameters such as the height, width, contour and colour of the scar. The best scars (typically small width and colour, height and contour like normal skin) were scored towards the normal skin end of the scale (the left hand side of the VAS line) and bad scars (typically large width, raised with uneven contours and whiter colour) were scored towards the bad scar end of the scale (the right hand side of the VAS line). The marks were measured from the left hand side to provide the final value for the scar assessment in centimetres (to 1 decimal place).
as §2, §3
Scars for analysis were harvested from experimental animals killed on the seventieth day post-wounding.
Macroscopic quality of scars was assessed using macroscopic scar assessment sheets scored by two observers in accordance with the protocols described above.
Statistical analysis was carried out using a one-factor analysis of variance (ANOVA) followed by the Mann-Whitney U (MWU) test. […]

[6] = 125 ng/100 μl, p<0.01 vs naïve wounds

“AYMTMKIRN [peptide of Sequence ID No. 2, peptide based on the C-terminal portion of interleukin 10 (IL-10)]” was tested, and the “wound width at the mid-points of incisional wounds” value (“wound width at the mid-points” below) (rat incisional wounds [1]; 50 ng/100 μl, p<0.05 vs naïve wounds) was “significant decrease in wound width”, the “wound width at the top of incisional wounds” value (rat incisional wounds [1]; [6]) was “significant decrease in wound width” and the “wound width at the mid-points” value (rat incisional wounds [1]; [6]) was “significant decrease in wound width”. The “wound width at the top of incisional wounds” value (rat incisional wounds [1]; 250 ng/100 μl, p<0.01 vs naïve wounds) was “significant decrease in wound width”, the “wound width at the mid-points” value (rat incisional wounds [1]; 250 ng/100 μl, p<0.01 vs naïve, p<0.05 vs diluent control wounds) was “significant decrease in wound width” and the “macroscopic visual analogue (VAS) score, wound quality” value (rat incisional wounds [2]; 125 ng/100 μl intradermal) was “significant improvement in the macroscopic quality”. The “macroscopic visual analogue (VAS) score, wound quality” value (rat incisional wounds [2]; 250 ng/100 μl intradermal) was “significant improvement in the macroscopic quality”, the “percentage of the tops of incisional wounds covered by re-epithelialisation” value (shortened to “percentage”) (rat incisional wounds [3]; 50 ng/100 μl) was “appeared to exhibit an increase in the extent of re-epithelialisation” and the “percentage” value (rat incisional wounds [3]; 125 ng/100 μl) was “appeared to exhibit an increase in the extent of re-epithelialisation”. The “percentage” value (rat incisional wounds [3]; 250 ng/100 μl, p<0.01 vs naïve, p<0.05 vs diluent alone) was “significant increase in the extent of re-epithelialisation”, the wound index score (rat incisional wounds [4]; 50 ng/100 μl) was “lower wound index scores than did control wounds” and the “wound width score (Wound Index parameter)” value (rat incisional wounds [4]; 50 ng/100 μl) was “lower wound width scores than controls”. For the same sequence, the wound index score (rat incisional wounds [4]; 125 ng/100 μl) was “lower wound index scores than did control wounds”, the “wound width score (Wound Index parameter)” value (rat incisional wounds [4]; 125 ng/100 μl) was “lower wound width scores than controls” and the wound index score (rat incisional wounds [4]; 250 ng/100 μl) was “lower wound index scores than did control wounds; also recorded: lowest wound index scores”. The “wound width score (Wound Index parameter)” value (rat incisional wounds [4]; 250 ng/100 μl) was “lower wound width scores than controls”, the “cellularity of treated wounds” value (rat incisional wounds [4]; day three incisional wounds, combined observers, FIG. 7) was “did not reduce cellularity of treated wounds” and the “inflammatory response in treated wounds” value (rat incisional wounds [4]; day three incisional wounds, combined observers, FIG. 8) was “did not reduce cellularity of treated wounds, or cause a reduction of the inflammatory response”. The “macroscopic visual analogue (VAS) score, scar quality” value (rat incisional wounds [5]; 50 ng/100 μl, p<0.05 vs naïve control wounds) was “significantly improved scarring”, the “macroscopic visual analogue (VAS) score, scar quality” value (rat incisional wounds [5]; 125 ng/100 μl, p<0.05 vs naïve control wounds) was “significantly improved scarring” and the “macroscopic visual analogue (VAS) score, scar quality” value (rat incisional wounds [5]; 250 ng/100 μl, p<0.01 vs naïve and diluent control wounds, 2 observers) was “significant improvement in macroscopic quality”. For the same sequence, the “macroscopic visual analogue (VAS) score, scar quality” value (rat incisional wounds [5]; 500 ng/100 μl, p<0.05 vs naïve control wounds) was “significantly improved scarring”.
